# Laboratory results published in US8119599B2, “Direct application of non-toxic crosslinking reagents to resist progressive spinal degeneration and deformity” (Orthopeutics, L.P., priority 2001, dated 2012).
# Where “and” joins values, the source holds several entries; their conditions need not be identical. Equal entries are not always repeated.
# Tests used:
# [1] = tested on: calf spine segments (intervertebral disc annular tissue); experiment: Four-point lateral bending test of spine segments after unilateral injection of crosslinking reagent; conditions: for Change in Stiffness: Compression side / Change in Stiffness: Tensionon side: neutral zone bending stiffness versus pre-treatment control; for Change in Stiffness: Compression side: treated side in compression; for Change in Stiffness: Tensionon side / Loss of Hysteresis: treated side in tension; for Loss of Hysteresis: versus pre-treatment control of same specimen
# From the text: Experiments utilized 5 calf spine segments, each segment comprised of 3 lumbar intervertebral joints (motion segments), four vertebrae and the intervening 3 discs. The pedicles were cut and the posterior processes removed. The segments were randomly divided into a 0.33% by weight genipin crosslinked group, a 0.5% genipin group, a 0.66% genipin group, and a 0.66% genipin plus 0.1% proanthocyanidin group. Each group consisted of one 3 motion segment specimen. Each pre-treated spine served as its own control. Repeated testing was performed on some untreated and treated specimens to determine repeatability of the measurements. Additional appropriate concentrations and combinations of known minimally cytotoxic crosslinking reagents will be chosen based on the documented cytotoxicity of a particular tissue. […] Similar testing will be conducted on fresh-non-frozen animal tissue with appropriate sterilization procedures and antibiotics to prevent tissue degradation. Sugar solutions will be injected unilaterally into fresh intervertebral discs to induce non-enzymatic glycation crosslinks over a period of sterile incubation.
# Four-point lateral bending tests were conducted using an MTS 858 materials testing system with custom fixtures while load and displacement were recorded digitally. First the specimens were cleaned of muscle and other non-load supporting tissues, and then the terminal vertebrae were potted in polyurethane to half their height in square molds. The potted spine segments are then placed on the bottom 2 rollers such that the lateral sides of the spines were positioned in a vertical plane. The bending load was actuated by 2 upper rollers in contact with the central two vertebrae of the segment. Care was taken to ensure that the pre- and post-treatment positioning of the specimens on the rollers was similar. As an attribute of 4-point bending, the central region of the test specimen, including the central disc between the 2 upper rollers, has an […] bending moment. A ramp load to 100 N (0.5 mm/s) was applied in right and left lateral bending to each spine both prior to treatment and after crosslinking treatment.
# The crosslinking reagents were delivered to each of the discs in each spine specimen by 2 to 3 injections into one lateral side of the spine. Each injection was comprised of 1 cc of reagent. A 26 gauge hypodermic needle was used. The treated segments were allowed to sit in a closed container wrapped in moist paper towels for 36 hours prior to final testing. After testing, the discs were cut transversely to visually document the region of the tissue contacted by the reagents.
# Resistance to lateral bending and lateral bending stability were assessed by two measures, one elastic-plastic, the other viscoelastic. The first was the neutral zone (low-load) bending stiffness evidenced by the amount of deformation from 0.1 to 100 N of deforming force. The second was the hysteresis or bending energy lost or not stored by the tissues. Less hysteresis, or a lower percentage of hysteresis compared to strain energy or the amount of bending energy stored and returned, corresponds to greater capacity to bounce back from a bend rather than remain in the deformed position. It also reflects a more elastic, spring-like response as compared to a more viscous response.
# [2] = tested on: posterior intervertebral disc (lumbar intervertebral joints); experiment: Indentation stress relaxation of posterior annulus before and after compression/flexion fatigue cycling; parameters: species or system calf; conditions: for change in relaxation due to 6000 fatigue cycles versus controls (fatigue resistance): 72 hours soaking (G1 0.033%, G2 0.33% Genipin in PBS), 6000 cycles at 200 N, 0.25 Hz; for initial pre-fatigue relaxation less than the pre-fatigue relaxation of the controls: 72 hours soaking in PBS with Genipin (G1 0.033%, G2 0.33%), before fatigue cycling
# Experimental: (§1) Thirty-three lumbar intervertebral joints were obtained from ten four-month-old calf spines. The intervertebral joints were arbitrarily divided into 3 groups: untreated controls-12 specimens, Genipin treatment 1 (G1)-6 specimens, and Genipin treatment 2 (G2)-13 specimens. The G1 treatment involved 72 hours of soaking the whole specimen in PBS with a 0.033% concentration of Genipin. Similarly the G2 treatment involved 72 hours of soaking whole specimens in PBS with 0.33% concentration of Genipin. 0.33% Genipin in PBS is produced by dilution of 50 ml of 10 times. PBS (Phosphate Buffered Saline) with distilled water by a factor of 10 to give 500 ml (500 gm) of PBS and mixing in 1.65 grams of genipin to produce the 0.33% (wt %, gm/gm) solution. […] Some controls were not subjected to soaking prior to fatigue testing. Others were soaked in a saline solution for 72 hours. Water mass loss experiments were conducted to establish the equivalency of outer annulus hydration between the genipin soaked and 0.9% saline soaked controls. The selection of treatments was randomized by spine and level. The vertebral ends of the specimens were then potted in polyurethane to facilitate mechanical testing. At the prescribed points in the loading regimen, indentation testing was used to find viscoelastic properties as follows. Stress relaxation data was gathered by ramp loading the 3 mm diameter hemi-spherical indenter to 10 N and subsequently holding that displacement for 60 s, while recording the resulting decrease in stress, referred to as the stress relaxation. Indentation testing was also utilized to determine elastic-plastic properties by calculating a hardness index (resistance to indentation) from ramp loading data. Prior to recording hardness measurements, the tissue is repeatedly indented 10 times (60 s/cycle, to the displacement at an initial 10 N load). This test protocol is based on two principles. First, viscoelastic effects asymptotically decrease with repeated loading. Secondly, hardness measurements are sensitive to the loading history of the tissue. However this effect becomes negligible following 10 loading cycles. In order to minimize these effects, viscoelastic data (stress relaxation) was collected from tissue that had not previously been indented. Alternately, elastic-plastic data (hardness) was collected from tissue that had been repeatedly loaded (preconditioned). In this case, repetitive indentation was intended to reduce the undesired effects of the changing viscoelastic properties, namely lack of repeatability, on hardness measurements. These testing procedures were derived from several preliminary experiments on the repeatability of the measurements with variations of loading history and location. Following initial indentation testing, the specimen was loaded repetitively in flexion-compression at 200 N for 3000 cycles at a rate of 0.25 Hz. The load was applied perpendicularly to the transverse plane, 40 mm anterior to the mid-point of the specimen in the transverse plane. A second set of indentation testing data is then collected following fatigue cycling. This procedure was followed for two fatigue loading cycles. During all testing, the specimens were wrapped in saline wetted gauze to maintain their moisture content. […] Several statistical measures were calculated to evaluate the significance of the results. […]
# [3] = tested on: posterior intervertebral disc (lumbar intervertebral joints); experiment: Indentation hardness of posterior annulus before and after compression/flexion fatigue cycling; parameters: species or system calf; conditions: for persistence of hardness improvement under fatigue cycling: 0.33% Genipin soak, up to 3000 fatigue cycles
# Experimental: as §1, with “measurements.” for “measurements. These testing procedures were derived from several preliminary experiments on the repeatability of the measurements with variations of loading history and location. Following initial indentation testing, the specimen was loaded repetitively in flexion-compression at 200 N for 3000 cycles at a rate of 0.25 Hz. The load was applied perpendicularly to the transverse plane, 40 mm anterior to the mid-point of the specimen in the transverse plane. A second set of indentation testing data is then collected following fatigue cycling. This procedure was followed for two fatigue loading cycles. During all testing, the specimens were wrapped in saline wetted gauze to maintain their moisture content.”
# [4] = tested on: annulus fibrosus specimens from lumbar intervertebral discs; experiment: Radial tear resistance test of annulus fibrosus specimens; parameters: species or system bovine; conditions: soaked two days in 0.15M PBS plus 0.33% genipin
# From the text: Ten annulus fibrosus circumferentially aligned specimens from bovine lumbar (T12-L5) intervertebral discs were divided into two groups and either soaked two days in a 0.15M PBS or a 0.15M PBS plus 0.33% genipin solution. A custom loading fixture attached to a uniaxial materials testing system was designed to hold an annulus specimen perpendicular to the travel of a metal cylinder placed in a pre-existing radial cut. The cylinder was then pulled radially (perpendicular to lamellae) towards the external layer. Time dependent force and displacement data was acquired simultaneously. Tearing resistance was quantified in two ways: peak force normalized by specimen thickness and tearing energy per area of tear. Differences between groups were analyzed using the Mann-Whitney non-parametric test.
# [5] = tested on: intervertebral discs (nucleus pulposus, inner and outer annulus fibrosus); experiment: Hydration change / fluid flux of disc regions after soaking, creep loading and resoaking; parameters: species or system calf (4 month old bovine); conditions: for Water content, Gr C2: 0.33% Genipin 2 days, then 750N creep loading 1 hour; for % increase by Genipin (flux versus control) / Genipin Flux / % increase by Genipin (fluid flow into and out of the nucleus versus control): 0.33% genipin; for Water content, Gr B2: 1 day PBS then 2 days 0.33% genipin solution; for Water content, Gr D2: 0.33% genipin 2 days, 750N creep 1 hour, PBS another day
# From the text: By measuring the change in hydration of different regions of the intervertebral disc (nucleus pulposus, inner annulus, and outer annulus fibrosus) prior to and after periods of soaking, sustained compressive loading, and resoaking, the fluid flux to and from different regions can be determined. By comparing these measurements between control discs and discs treated with crosslinking reagents known to have minimal cytotoxicity, we see the effect of crosslinking treatment on fluid flux and permeability. A total of 24 calf (4 month old bovine) intervertebral discs were used for this study. Water content of three different areas of the […] tissue were tested-the nucleus pulposus, inner annulus fibrosus and outer annulus fibrosus. Hydration change was determined by weighing the specimen using a micro-balance (sensitivity: 0.1 mg). Water content (M) was calculated as: M=(Wet Weight-Dry Weight)/Wet Weight=g H2O/g Wet Weight The drying procedure consisted of putting the specimens in the oven with a controlled temperature of 90 degree C. for 24 hours. The specimens were separated into four tests: 1. Group A: Three specimens were in this group. It served as a control group. The specimens were soaked in PBS (phosphate buffered saline) for 1 day and then the hydration analysis was performed. 2. Group B1: Four specimens were in this group. In addition to the one day PBS soaking, the specimens soaked in PBS for 2 more days as a control and then the hydration analysis was performed. Group B2: Five specimens were in this group. In addition to the one day PBS soaking, the specimens were soaked in 0.33% genipin solution for 2 days and then the hydration analysis was performed. 3. In group C, a small daytime amount of constant compressive loading (creep) was simulated. C1: Three specimens were in this group. The specimens were soaked in PBS for 3 days and then […] of compression was applied by a materials testing machine for 1 hour. The disc was compressed in a 5 degree of flexion posture produced by two rollers attached to the loading ram of the materials testing machine. The hydration analysis was performed immediately after the creep loading. C2: Three specimens were in this group. The specimens were soaked in 0.33% Genipin solution for 2 days after 1 day of PBS soaking and performed identical creep loading with […] compressive load. The hydration analysis was performed immediately after the creep loading. 4. In group D, the imbibition of water following a period of compressive loading that typically occurs in the night time as a person is in a recumbent posture was simulated. D1: The specimens were soaked in PBS solution for 3 days and then 1 hour of creep loading at 750 N was applied. After the creep loading, the specimens were placed in a container in 1 PBS for one more day followed by the hydration analysis. D2: Three specimens were included and were soaked in 0.33% genipin solution for 2 days after one day of PBS soaking. A creep load of […] for one hour was then applied. The specimens were put in PBS for another day followed by the hydration analysis.
# [6] = compared to other more commonly used crosslinking agents; cited from earlier work
# [7] = tested on: collagenous, load-supporting tissues; conditions: compared with other crosslinking reagents (Sung 1999b); cited from earlier work
smiles,measurement,setting,value
"COC(=O)C1=CO[C@@H](O)[C@@H]2C(CO)=CC[C@H]12 [0.33G, genipin]",Change in Stiffness: Compression side,[1],29%
same,Change in Stiffness: Tensionon side,[1],17%
same,Loss of Hysteresis,[1],35%
"COC(=O)C1=CO[C@@H](O)[C@@H]2C(CO)=CC[C@H]12 [0.50G, genipin]",Change in Stiffness: Compression side,[1],−12% and −22%
same,Change in Stiffness: Tensionon side,[1],8% and 0.43%
"COC(=O)C1=CO[C@@H](O)[C@@H]2C(CO)=CC[C@H]12 [0.66G, genipin]",Change in Stiffness: Compression side,[1],8%
same,Change in Stiffness: Tensionon side,[1],6%
same,Loss of Hysteresis,[1],20%
"COC(=O)C1=CO[C@@H](O)[C@@H]2C(CO)=CC[C@H]12 [G1, Genipin]",change in relaxation due to 6000 fatigue cycles versus controls (fatigue resistance),[2],did not bring about the same improvement in fatigue resistance
same,initial pre-fatigue relaxation less than the pre-fatigue relaxation of the controls,[2],26%
"COC(=O)C1=CO[C@@H](O)[C@@H]2C(CO)=CC[C@H]12 [G2, Genipin]",change in relaxation due to 6000 fatigue cycles versus controls (fatigue resistance),[2],less than a third of the change in the controls
same,initial pre-fatigue relaxation less than the pre-fatigue relaxation of the controls,[2],19%
same,persistence of hardness improvement under fatigue cycling,[3],appears to have eroded prior to 3000 fatigue cycles
same,change in hardness between 3000 and 6000 cycles,"[3]; G2: 0.33% Genipin, Brinnell's hardness index",−0.94
same,initial pre-fatigue hardness greater than that of the control group,"[3]; G2: 72 hours soaking in PBS with 0.33% Genipin, before fatigue cycling",17%
COC(=O)C1=CO[C@@H](O)[C@@H]2C(CO)=CC[C@H]12 [genipin],reduction in viscoelastic degradation,[2]; soaking calf disc tissue in 0.33% concentration of genipin,More than a three-fold reduction
same,Normalized peak force (peak force normalized by specimen thickness),[4],42.7 N/mm
same,Total energy per area of tear,[4],40.2 mJ/mm^2
same,"Water content, Gr C2",[5]; Inner AF,0.7394 g H2O/g Wet Weight
same,% increase by Genipin (flux versus control),[5]; Inner AF,17.3%
same,Genipin Flux,[5]; Inner AF,0.1008
same,"Water content, Gr B2",[5]; Inner AF,0.7629 g H2O/g Wet Weight
same,"Water content, Gr C2",[5]; NP,0.817 g H2O/g Wet Weight
same,% increase by Genipin (fluid flow into and out of the nucleus versus control),[5]; NP,64%
same,Genipin Flux,[5]; NP,0.04983
same,"Water content, Gr D2",[5]; NP,0.8524 g H2O/g Wet Weight
same,% increase by Genipin (fluid flow into and out of the nucleus versus control),"[5]; NP, listed as Genipin",63.7%
same,"Water content, Gr B2",[5]; NP,0.8314 g H2O/g Wet Weight
same,"Water content, Gr C2",[5]; Outer AF,0.6924 g H2O/g Wet Weight
same,% increase by Genipin (flux versus control),[5]; Outer AF,5.7%
same,Genipin Flux,[5]; Outer AF,0.05294
same,"Water content, Gr D2",[5]; Outer AF,0.711 g H2O/g Wet Weight
same,"Water content, Gr B2",[5]; Outer AF,0.7268 g H2O/g Wet Weight
same,persistence of hardness improvement under fatigue cycling,[3],unable to sustain an improvement in the elastic mechanical properties (hardness) to 3000 test cycles
same,cytotoxicity,[6],significantly less cytotoxicity
same,ultimate tensile strength and toughness,[7],greater ultimate tensile strength and toughness
